Laboratory results reported in patent US12534456B2, “Heterocyclyl pyridines as novel fungicides” (Bayer Aktiengesellschaft, priority 2020, dated 2026).

Assay: physchem
Assay type: physicochemical
Protocol: Measurement of Log P values as provided herein was performed according to EEC directive 79/831 Annex V.A8 by HPLC (High Performance Liquid Chromatography) on reversed phase columns with the following methods: • ^[a]
If more than one Log P value is available within the same method, all the values are given and separated by “+”.
Lambda-max-values were determined using UV-spectra from 200 nm to 400 nm and the peak values of the chromatographic signals

[1] = Table 11, compounds of formula (6), method [a]: LC-UV, acidic range, 0.1% formic acid in water and acetonitrile
[2] = Table 13, compounds of formula (7), method [a]

Compound | LogP | other results
CC1ON=C(c2cc(Cl)ncc2Oc2cccc(C(F)(F)F)c2)NC1c1ccc(Cl)cc1 (mixture of isomers) [Compound I-042] | 4.19^[a] | –
FC1ON=C(c2cc(Cl)ncc2Oc2cccc(C(F)(F)F)c2)NC1c1ccc(Cl)cc1 (mixture of isomers) [Compound I-051] | 3.33^[a] | –
CC(=O)OC1ON=C(c2cc(Cl)ncc2Oc2cccc(C(F)(F)F)c2)NC1c1ccc(Cl)cc1 (mixture of isomers) [Compound I-073] | 4.08^[a] | –
CCC1ON=C(c2cc(Cl)ncc2Oc2cccc(C(F)(F)F)c2)NC1c1ccc(OC)cc1 (mixture of isomers) [Compound I-122] | 4.07^[a] | –
FC(F)(F)c1cccc(Oc2cnc(Cl)cc2C2=NOC(C3CC3)C(c3ccc(Cl)cc3)N2)c1 (mixture of isomers) [Compound I-139] | 4.47^[a] | –
Cc1ccc(CC2CON=C(c3cc(Cl)ncc3Oc3cccc(C4CC4F)c3)N2)c(C)c1 (mixture of isomers) [Compound I-143] | 4.38^[a] | –
Cc1ccc(CC(CON2C(=O)c3ccccc3C2=O)NC(=O)c2cc(Cl)ncc2Oc2cccc(C(F)(F)F)c2)c(C)c1 (racemic) [Compound 3-01, 2-chloro-N-{(2RS)-1-(2,4-dimethylphenyl)-3-[(1,3-dioxo-1,3-dihydro-2H-isoindol-2-yl)oxy]propan-2-yl}-5-[3-(trifluoromethyl)phenoxy]isonicotinamide] | – | chromatographic logP (Table 7, compounds of formula (3), method [a]): 5.14
Cc1ccc(CC(CON)NC(=O)c2cc(Cl)ncc2Oc2cccc(C(F)(F)F)c2)c(C)c1 (racemic) [Compound 4-01, N-[(2RS)-1-(aminooxy)-3-(2,4-dimethylphenyl)propan-2-yl]-2-chloro-5-[3-(trifluoromethyl)phenoxy]isonicotinamide] | – | chromatographic logP (Table 9, compounds of formula (4a)/(4b), method [a]): 3.48
Cc1ccc(CC(CON)NC(=O)c2cc(C(F)(F)F)ncc2Br)c(C)c1 (racemic) [Compound 6-03, N-[(2RS)-1-(aminooxy)-3-(2,4-dimethylphenyl)propan-2-yl]-5-bromo-2-(trifluoromethyl)isonicotinamide] | – | chromatographic logP [1]: 2.51
Cc1ccc(CC(CON2C(=O)c3ccccc3C2=O)NC(=O)c2cc(C(F)(F)F)ncc2Br)c(C)c1 (racemic) [Compound 6-04, 5-bromo-N-{(2RS)-1-(2,4-dimethylphenyl)-3-[(1,3-dioxo-1,3-dihydro-2H-isoindol-2-yl)oxy]propan-2-yl}-2-(trifluoromethyl)isonicotinamide] | – | chromatographic logP [1]: 4.4
Cc1ccc(CC2CON=C(c3ccncc3Br)N2)cc1 (racemic) [Compound 7-02, (5RS)-3-(3-bromopyridin-4-yl)-5-(4-methylbenzyl)-5,6-dihydro-4H-1,2,4-oxadiazine] | – | chromatographic logP [2]: 2.31
Cc1ccc(CC2CON=C(c3cc(C(F)(F)F)ncc3Br)N2)c(C)c1 (racemic) [Compound 7-03, (5RS)-3-[5-bromo-2-(trifluoromethyl)pyridin-4-yl]-5-(2,4-dimethylbenzyl)-5,6-dihydro-4H-1,2,4-oxadiazine] | – | chromatographic logP [2]: 2.43
Cc1ccc(CC(CCl)NC(=O)c2ccncc2Br)cc1 (racemic) [Compound 17-01, 3-bromo-N-[(2RS)-1-chloro-3-(4-methylphenyl)propan-2-yl]isonicotinamide] | – | chromatographic logP (Table 22, compounds of formula (17), method [a]): 2.8
Cc1ccc(CC(CCl)NC(=NO)c2ccncc2Br)cc1 (racemic) [Compound 18-01, 3-bromo-N-[(2RS)-1-chloro-3-(4-methylphenyl)propan-2-yl]-N′-hydroxypyridine-4-carboximidamide] | – | chromatographic logP (Table 24, compounds of formula (18), method [a]): 2.78
Cc1ccc(CC2CON=C(c3cc(Cl)ncc3Oc3cccc(Cl)c3)N2)c(C)c1 (racemic) [Compound I-002] | 4.51^[a] | –
Cc1ccc(CC2CON=C(c3cc(Cl)ncc3Oc3cccc(C(F)F)c3)N2)c(C)c1 (racemic) [Compound I-003] | 4.08^[a] | –
FC(F)c1cccc(Oc2cnc(Cl)cc2C2=NOCC(Cc3ccc(Br)cc3Cl)N2)c1 (racemic) [Compound I-004] | 4.32^[a] | –
COc1cccc(Oc2cnc(Cl)cc2C2=NOCC(Cc3ccc(C)cc3C)N2)c1 (racemic) [Compound I-005] | 4.18^[a] | –
COc1cccc(Oc2cnc(Cl)cc2C2=NOCC(Cc3ccc(Br)cc3Cl)N2)c1 (racemic) [Compound I-006] | 4.37^[a] | –
Cc1cccc(Oc2cnc(Cl)cc2C2=NOCC(Cc3ccc(C)cc3C)N2)c1 (racemic) [Compound I-007] | 4.55^[a] | –

Compound | LogP | other results
Cc1cccc(Oc2cnc(C)cc2C2=NOCC(Cc3ccc(C)cc3C)N2)c1 (racemic) [Compound I-008] | 3.61^[a] | –
COc1cccc(Oc2cnc(C)cc2C2=NOCC(Cc3ccc(C)cc3C)N2)c1 (racemic) [Compound I-009] | 3.29^[a] | –
Cc1ccc(CC2CON=C(c3cc(C)ncc3Oc3cccc(C(F)F)c3)N2)c(C)c1 (racemic) [Compound I-010] | 3.41^[a] | –
Cc1ccc(CC2CON=C(c3cc(Cl)ncc3Oc3cccc(C4CC4)c3)N2)c(C)c1 (racemic) [Compound I-013] | 4.89^[a] | –
Cc1ccc(CC2CON=C(c3cc(Cl)ncc3Oc3cccc(C4CC4)c3F)N2)c(C)c1 (racemic) [Compound I-014] | 4.89^[a] | –
Cc1ccc(CC2CON=C(c3cc(C)ncc3Oc3cccc(C4CC4)c3)N2)c(C)c1 (racemic) [Compound I-015] | 3.94^[a] | –
Cc1ccc(CC2CON=C(c3cc(C4CC4)ncc3Oc3cccc(C4CC4)c3)N2)c(C)c1 (racemic) [Compound I-016] | 4.87^[a] | –
Cc1ccc(CC2CON=C(c3cc(C)ncc3Oc3cccc(C4CC4)c3F)N2)c(C)c1 (racemic) [Compound I-017] | 4.03^[a] | –
Cc1ccc(CC2CON=C(c3cc(C)ncc3Oc3cccc(Cl)c3)N2)c(C)c1 (racemic) [Compound I-018] | 3.76^[a] | –
Fc1c(Oc2cnc(Cl)cc2C2=NOCC(Cc3ccc(Br)cc3Cl)N2)cccc1C1CC1 (racemic) [Compound I-023] | 5.11^[a] | –
Fc1c(Oc2cnc(Cl)cc2C2=NOCC(Cc3ccc(Cl)cc3Cl)N2)cccc1C1CC1 (racemic) [Compound I-024] | 4.98^[a] | –
Clc1ccc(CC2CON=C(c3cc(Cl)ncc3Oc3cccc(C4CC4)c3)N2)c(Cl)c1 (racemic) [Compound I-025] | 4.98^[a] | –
Clc1cc(C2=NOCC(Cc3ccc(Br)cc3Cl)N2)c(Oc2cccc(C3CC3)c2)cn1 (racemic) [Compound I-026] | 5.16^[a] | –
CCc1cc(C2=NOCC(Cc3ccc(C)cc3C)N2)c(Oc2cccc(C3CC3)c2)cn1 (racemic) [Compound I-027] | 4.40^[a] | –
Cc1cc(C2=NOCC(Cc3ccc(Cl)cc3Cl)N2)c(Oc2cccc(C3CC3)c2)cn1 (racemic) [Compound I-028] | 4.08^[a] | –
Cc1ccc(CC2CON=C(c3cc(C)ncc3Oc3cccc(C4CC4)c3)N2)c(Cl)c1 (racemic) [Compound I-030] | 3.98^[a] | –
Cc1ccc(CC2CON=C(c3cc(C)ncc3Oc3cccc(C4CC4)c3F)N2)c(Cl)c1 (racemic) [Compound I-031] | 4.08^[a] | –
Cc1ccc(CC2CON=C(c3cc(Cl)ncc3Oc3cccc(C)c3F)N2)c(C)c1 (racemic) [Compound I-032] | 4.59^[a] | –
Cc1ccc(CC2CON=C(c3cc(C(F)(F)F)ncc3Oc3cccc(C4CC4)c3F)N2)c(C)c1 (racemic) [Compound I-033] | 5.20^[a] | –
